Measurements reported in US10561666B2, “Amido compounds as RORγt modulators and uses thereof” (New York University, priority 2010, dated 2020).

Molecular target: RORγt (Mus musculus, UniProt P51450, T352K)
Experiment: RORγt S2 cell Gal4-luciferase reporter assay
Conditions: for Emax: read-out: Efficacy (%)
[1] = IC50(μM), Drosophila S2 cells, Gal4-RORγt luciferase reporter, 20 hr
[2] = S2 cell RORg IC50 μM, S2 cell reporter assay, listed for comparison
[3] = Drosophila S2 cells, Gal4-RORγt luciferase reporter, 20 hr

RORγt, sequence (P51450 with tags, fused parts or gaps T352K): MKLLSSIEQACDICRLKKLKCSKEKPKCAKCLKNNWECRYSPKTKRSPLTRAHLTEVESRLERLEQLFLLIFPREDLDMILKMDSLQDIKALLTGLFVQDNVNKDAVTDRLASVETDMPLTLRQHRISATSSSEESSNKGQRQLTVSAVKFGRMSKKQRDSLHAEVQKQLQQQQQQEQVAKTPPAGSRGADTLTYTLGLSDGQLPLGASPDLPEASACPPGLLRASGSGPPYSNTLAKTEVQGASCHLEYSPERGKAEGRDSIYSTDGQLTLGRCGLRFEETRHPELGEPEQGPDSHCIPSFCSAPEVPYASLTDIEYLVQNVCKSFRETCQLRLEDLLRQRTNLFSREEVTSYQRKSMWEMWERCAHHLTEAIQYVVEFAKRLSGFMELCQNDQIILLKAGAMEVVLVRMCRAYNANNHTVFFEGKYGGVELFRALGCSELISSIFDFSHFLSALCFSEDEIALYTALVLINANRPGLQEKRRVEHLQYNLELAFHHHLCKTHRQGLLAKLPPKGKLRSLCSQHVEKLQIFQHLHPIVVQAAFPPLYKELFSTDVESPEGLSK
Excerpt: Methods: The Drosophila S2 cell line was originally purchased from Invitrogen and was maintained in Schneider's medium supplemented with 10% heat-inactivated bovine fetal calf serum and antibiotics (Invitrogen). […] The resulting chimeric gene was subcloned into the copper inducible pMT/V5-His A vector (available from Invitrogen).
In order to generate stable cell lines, cells were co-transfected with pMT-G4DBD-RORγt, pMT-G4DBD-RORα, pMT-G4DBD-DHR3, or pMT-G4DBDVP16 and pHygro plasmids (Invitrogen) and screened for resistant colonies in the presence of hygromycin (0.3 mg/mL).
Methods: 600 G4DBD-RORγ/γt-luc reporter (#25) or G4DBD-VP16-luc reporter cells were distributed into each well of 1,536-well white bottom plates in 4 μl S2 cell culture volume containing hygromicin (300 μg/ml) and puromycin (2 μg/ml). […] After one-hour incubation, 1 μl of culture medium solution containing copper sulfate (to final 0.7 mM) and 10 μM RORγ/γt antagonists were added to each well. After 20-hour incubation at ambient temperature, 1.5 μl firefly luciferase detection mix was added and the luciferase activities were measured in 10 min. ViewLux luminometers were used for measuring luciferase signal.
Since their cognate DNA binding sites were not well characterized, the DNA binding domains (DBD) of RORγ/γt, RORα (mouse homolog for POPγ), and DHR3 (Drosophila orthologue for ROR family proteins) were replaced with the heterologous yeast GAL4 DBD. The transcriptionally active domain of general transcriptional activator VP16 was also fused with GAL4 DBD. The GAL4 fusion constructs were placed under the control of a copper inducible promoter, and stable S2 cell lines with genomic integration of these four reporter constructs were generated. The copper inducible promoter ensures tight regulation of GAL4-fusion protein expression and it allows small molecules to get into the cells prior to protein induction, thus increasing their effects on GAL4 reporters. The stable reporter cell lines also encode the firefly luciferase reporter, whose expression is regulated by five copies of the GAL4 binding site enhancer (UAS), along with the pol III-driven Renilla luciferase reporter.
A cell-based reporter assay was used to detect RORγt-mediated activity. This assay, called RORγt□ employed Drosophila Schneider cells that were stably transfected with two vectors: a gene expressing a fusion of the Gal4 DNA binding domain and RORγt transactivation domain under the control of the metallothionine promoter and a Photinus luciferase reporter regulated by the Gal4 binding site enhancer, UAS. […] Cells (600/well) were dispensed into white solid 1536-well plates (Greiner) using a solenoid-based dispenser. Following transfer of 23 nL compound or DMSO vehicle by a pin tool, the plates were incubated 1 hr at ambient temperature, and 1 uL/well copper sulfate (700 uM final concentration) was added. The plates were centrifuged 15 s at 1000 RPM and incubated 20 hr at ambient temperature. After addition of 1.5 uL Photinus luciferase detection reagent, the plates were incubated 10 min at ambient temperature and then read by a ViewLux (Perkin Elmer) to detect luminescence. […] Efficacy is expressed as % of the maximal response of control inhibitor (Digoxin), set at 100%.

Molecule	IC50 [1]	Emax	IC50 [2]	IC50 [3]	Efficacy (%) (% of the maximal response of control inhibitor (Digoxin), set at 100%)
COc1cc(O)c(C(CC(=O)N2CCCC(C(=O)c3ccccc3)C2)c2ccc3c(c2)OCO3)c(OC)c1 (stereo not drawn) [Compound 16]	> 50 µM				
COc1cc(O)c(C(CC(=O)N2CCCC(CN3CCCCC3)C2)c2ccc3c(c2)OCO3)c(OC)c1 (stereo not drawn) [Compound 15]	> 50 µM				
COc1cc(OC)c(C(c2ccccc2)C(C)(C)C(=O)N2C3CCC2CC3)c(OC)c1 (stereo not drawn) [Compound 153]	1 to 10 µM	36.5%			
COc1cc(OC)c(C(c2ccccc2)C(C)(C)C(=O)N2CC3CC4CC(C3)CC2C4)c(OC)c1 (stereo not drawn) [Compound 151]	> 50 µM	118%			
COc1cc(O)c(C(CC(=O)N(C)c2cccc(C)c2)c2ccc3c(c2)OCO3)c(OC)c1 (stereo not drawn) [Compound 28]	> 50 µM				
COc1ccccc1C(CC(=O)N1C[C@H](C)C[C@H](C)C1)c1ccccc1 (stereo partly drawn) [Compound 55]	> 50 µM		> 20 µM		
COc1cc(O)c(C(CC(=O)N2CC(C)CC(C)C2)c2ccc(OCc3ccccc3)cc2)c(OC)c1 (stereo not drawn) [Compound 110]				1 to 10 µM	
CCCN(C(=O)C(C)(C)C(c1ccccc1)c1c(OC)cc(OC)cc1OC)C1CCCC(C)C1 (stereo not drawn) [Compound 155]	> 50 µM				
COc1cc(O)c(C(CC(=O)N2CCCC(C)C2)c2ccc(OC)c(OC)c2)c(OC)c1 (stereo not drawn) [Compound 58]	11 to 50 µM	98.2%			
Cc1cccc(C(CC(=O)NCc2ccco2)c2ccccc2)c1O (stereo not drawn) [Compound 49]	> 50 µM				
N-(3-(3-(3,5-Dimethylpiperidin-1-yl)-1-(2-hydroxy-4,6-dimethoxyphenyl)-3-oxopropyl)phenyl)methanesulfonamide [Compound 82]				< 1 µM	−95.39%
COc1cc(O)c(C(CC(=O)N2CCCCC2)c2ccc3c(c2)OCO3)c(OC)c1 (stereo not drawn) [Compound 5]	11 to 50 µM	90.4%			
COc1ccc(C)c(O)c1C(CC(=O)N1CCCC(C)C1)c1ccc2c(c1)OCO2 (stereo not drawn) [Compound 130]	11 to 50 µM	77.5%			
COc1cc(O)c(C(CC(=O)N2CCCC2)c2ccc3c(c2)OCO3)c(OC)c1 (stereo not drawn) [Compound 37]	11 to 50 µM	27.1%			
CC1CCCN(C(=O)CC(c2ccccc2)c2ccc(O)cc2)C1 (stereo not drawn) [Compound 53]	> 50 µM				
COc1ccc(C(CC(=O)Nc2ccc(F)cc2)c2ccccc2)cc1 (stereo not drawn) [Compound 46]	> 50 µM				
CCC(=O)C1CCCN(C(=O)CC(c2ccc3c(c2)OCO3)c2c(O)cc(OC)cc2OC)C1 (stereo not drawn) [Compound 13]	> 50 µM				
COc1cc(OC)c(C(c2ccccc2)C(C)(C)C(=O)N2CC3CCC2C3)c(OC)c1 (stereo not drawn) [Compound 152]	11 to 50 µM	50.7%			
CCc1ccc(O)c(C(CC(=O)N2CCCC(C)C2)c2ccc3c(c2)OCO3)c1 (stereo not drawn) [Compound 112]	11 to 50 µM	106%			
COc1cc(O)c(C(CC(=O)N2CCCC(C)C2)c2ccccc2OC)c(OC)c1 (stereo not drawn) [Compound 59]	> 50 µM		> 20 µM		
COc1cc(O)c(C(CC(=O)N2CCC(Cc3ccccc3)CC2)c2ccc(C)cc2)c(OC)c1 (stereo not drawn) [Compound 44]	> 50 µM				
CCN(CC)C(=O)CC(c1ccc2c(c1)OCO2)c1c(O)cc(OC)cc1OC (stereo not drawn) [Compound 39]	11 to 50 µM	64.9%			
CCCC1CCN(C(=O)CC(c2ccc3c(c2)OCO3)c2c(O)cc(OC)cc2OC)C1 (stereo not drawn) [Compound 9]	11 to 50 µM	63.5%			
COc1cc(O)c(C(CC(=O)Nc2cccc3ccccc23)c2ccc3c(c2)OCO3)c(OC)c1 (stereo not drawn) [Compound 31]	> 50 µM				
COc1cc(O)c(C(CC(=O)Nc2ccc(C)cc2)c2ccc3c(c2)OCO3)c(OC)c1 (stereo not drawn) [Compound 29]	> 50 µM				
COc1cc(O)c(C(CC(=O)N2CCCC(C#N)C2)c2ccc3c(c2)OCO3)c(OC)c1 (stereo not drawn) [Compound 6]	11 to 50 µM	66%			
Cc1cccc(C(CC(=O)NCCc2ccccc2)c2ccccc2)c1O (stereo not drawn) [Compound 48]	> 50 µM				

Continued, in another order:

IC50 [1]	Emax	IC50 [2]	Molecule	IC50 [3]	Efficacy (%) (% of the maximal response of control inhibitor (Digoxin), set at 100%)
1 to 10 µM	95.4%		COc1cc(O)c(C(CC(=O)N2CC(C)CC(C)C2)c2ccc(C(C)(C)C)cc2)c(OC)c1 (stereo not drawn) [Compound 89, 3-(4-tert-Butylphenyl)-1-(3,5-dimethylpiperidin-1-yl)-3-(2-hydroxy-4,6-dimethoxyphenyl)propan-1-one]		
11 to 50 µM	76.9%		COc1cc(O)c(C(CC(=O)N2CCCC(C)C2)c2ccc3c(c2)OCO3)c2ccccc12 (stereo not drawn) [Compound 129]		
11 to 50 µM	89%		CCC1(CC)CCN(C(=O)CC(c2ccc3c(c2)OCO3)c2c(O)cc(OC)cc2OC)C1 (stereo not drawn) [Compound 10]		
1 to 10 µM	103%		CC(=O)Nc1ccc(C(CC(=O)N2CC(C)CC(C)C2)c2ccc3c(c2)OCO3)c(O)c1 (stereo not drawn) [Compound 133]		
11 to 50 µM	61.5%		COc1cc(O)c(C(CC(=O)N2CC(C)CC(C)C2)c2cc(Cl)cc(Cl)c2)c(OC)c1 (stereo not drawn) [Compound 97]		
11 to 50 µM	90.4%		COCC1CCCN(C(=O)CC(c2ccc3c(c2)OCO3)c2c(O)cc(OC)cc2OC)C1 (stereo not drawn) [Compound 12]		
11 to 50 µM	99.9%		COc1ccc2ccccc2c1C(c1ccc(F)cc1)C(C)(C)C(=O)N1CC(C)OC(C)C1 (stereo not drawn) [Compound 156]		
11 to 50 µM	70.1%		COc1cc(O)c(C(CC(=O)N2CCCC(c3ccccc3)C2)c2ccc3c(c2)OCO3)c(OC)c1 (stereo not drawn) [Compound 14]		
1 to 10 µM	98%		C#CCOc1cc(OC)cc(OC)c1C(CC(=O)N1CCCC(C)C1)c1ccc2c(c1)OCO2 (stereo not drawn) [Compound 123]		
1 to 10 µM	79.7%		CC1CC(C)CN(C(=O)CC(c2ccc3c(c2)OCO3)c2cc(F)ccc2O)C1 (stereo not drawn) [Compound 145]		
1 to 10 µM	30.5%		COc1ccccc1C(CC(=O)N1CCCCC1)c1ccccc1 (stereo not drawn) [Compound 56]		
1 to 10 µM	92.6%		COc1cc(O)c(C(CC(=O)N2CC(C)CC(C)C2)c2ccc(C(=O)O)cc2)c(OC)c1 (stereo not drawn) [Compound 99]		
11 to 50 µM	80%		COc1cc2ccccc2c(O)c1C(CC(=O)N1CCCC(C)C1)c1ccc2c(c1)OCO2 (stereo not drawn) [Compound 128]		
< 1 µM	94%		COc1cc(O)c(C(CC(=O)N2CC(C)CC(C)C2)c2ccc3c(c2)OCCCO3)c(OC)c1 (stereo not drawn) [Compound 80]		
11 to 50 µM	87.3%		CC1CCCN(C(=O)CC(c2ccc3c(c2)OCO3)c2cc(C(C)C)ccc2O)C1 (stereo not drawn) [Compound 114]		
11 to 50 µM	102%		COc1cc(O)c(C(CC(=O)N2CCCC(C(C)C)C2)c2ccc3c(c2)OCO3)c(OC)c1 (stereo not drawn) [Compound 11]		

IC50 [1]	Emax	IC50 [2]	Molecule	IC50 [3]	Efficacy (%) (% of the maximal response of control inhibitor (Digoxin), set at 100%)
11 to 50 µM	43.5%		Cc1cccc(O)c1C(CC(=O)N1CCCC(C)C1)c1ccc2c(c1)OCO2 (stereo not drawn) [Compound 126]		
11 to 50 µM	90.6%		COc1cc(O)c(C(CC(=O)N2CCCC(c3nc4ccccc4o3)C2)c2ccc3c(c2)OCO3)c(OC)c1 (stereo not drawn) [Compound 18]		
11 to 50 µM	88.1%		O=C(CC(c1ccc2c(c1)OCO2)c1c(O)ccc2ccccc12)N1CCCCC1 (stereo not drawn) [Compound 147]		
11 to 50 µM	51.6%		Cc1ccc(C(CC(=O)N2CCCC(C)C2)c2ccc3c(c2)OCO3)c(O)c1 (stereo not drawn) [Compound 125]		
1 to 10 µM	93.1%		COc1cc(O)c(C(CC(=O)N2CC(C)CC(C)C2)c2ccc(C(=O)NC3CC3)cc2)c(OC)c1 (stereo not drawn) [Compound 95]		
11 to 50 µM			COc1cc(O)c(C(CC(=O)N2CC(C)CC(C)C2)c2ccc(S(=O)(=O)N(C)C)cc2)c(OC)c1 (stereo not drawn) [Compound 84, 4-(3-(3,5-Dimethylpiperidin-1-yl)-1-(2-hydroxy-4,6-dimethoxyphenyl)-3-oxopropyl)-N,N-dimethylbenzenesulfonamide]		
11 to 50 µM	97.3%		CC1CC(C)CN(C(=O)CC(c2ccc3c(c2)OCO3)c2ccc(F)cc2O)C1 (stereo not drawn) [Compound 144]		
1 to 10 µM	94.6%		COc1cc(O)c(C(CC(=O)N2CC(C)CC(C)C2)c2ccc(OCc3ccccc3)cc2)c(OC)c1 (stereo not drawn) [Compound 92]		
1 to 10 µM	100%		CCOc1ccc(C(CC(=O)N2CCCC(C)C2)c2c(O)cc(OC)cc2OC)cc1 (stereo not drawn) [Compound 62]		
< 1 µM	94.5%		COc1c(C(CC(=O)N2CC(C)CC(C)C2)c2ccc3c(c2)OCO3)c(O)cc2occc12 (stereo not drawn) [Compound 139]		
1 to 10 µM	92.4%	1 to 10 µM	COc1cc(O)c(C(CC(=O)N2CCCC(C)C2)c2ccc3ccccc3c2)c(OC)c1 (stereo not drawn) [Compound 65]		
< 1 µM	96.5%		COc1cccc(O)c1C(CC(=O)N1CC(C)CC(C)C1)c1ccc2c(c1)OCO2 (stereo not drawn) [Compound 140, 3-(Benzo[d][1,3]dioxol-5-yl)-1-(3,5-dimethylpiperidin-1-yl)-3-(2-hydroxy-6-methoxyphenyl)propan-1-one]		
1 to 10 µM	96.2%		CCC1CCCN(C(=O)CC(c2ccc3c(c2)OCO3)c2c(O)cc(OC)cc2OC)C1 (stereo not drawn) [Compound 7]		
1 to 10 µM	99.9%		COc1cc(O)c(C(CC(=O)N2CC(C)CC(C)C2)c2cccc(F)c2)c(OC)c1 (stereo not drawn) [Compound 102]		
1 to 10 µM	94.8%		COc1cc(O)c(C(CC(=O)N2CC(C)CC(C)C2)c2ccc(OC(F)(F)F)cc2)c(OC)c1 (stereo not drawn) [Compound 96, 1-(3,5-Dimethylpiperidin-1-yl)-3-(2-hydroxy-4,6-dimethoxyphenyl)-3-(4-(trifluoromethoxy)phenyl)propan-1-one]		
1 to 10 µM	91.6%		COc1cc(OC)c(C(c2ccccc2)C(C)(C)C(=O)N2CC(C)OC(C)C2)c(OC)c1 (stereo not drawn) [Compound 150]		
